Results published in patent publication US11639350B2, “Heteroaryldihydropyrimidine derivatives and methods of treating hepatitis B infections” (Janssen Pharmaceutica NV, priority 2018, dated 2023).
Where two headings read alike, the source gives them in different places.

Assays:
HBV = HBV inhibitory activity: HBV DNA in the culture medium of HepG2.2.15 cells by q-PCR; assay type: cell-based
Method: (§1) HBV replication inhibition by the compounds of this invention as well as cytotoxicity determination was determined in cells infected or transfected with HBV, or cells with stably integrated HBV, such as HepG2.2.15 cells (Sells et al. 1987). The method used herein is as follows.
(§2) The HepG2.2.15 cells were seeded into 96-well plate in 2% FBS (Fetal bovine serum) culture medium at the density of 40,000 cells/well and 5,000 cells/well for HBV inhibitory activity and cytotoxicity determination, respectively. After seeding, the cell plates were incubated at 37° C., 5% CO2 overnight. The next day, medium containing compounds were added to treat the cells for 6 days with medium refreshed once in the middle of the treatment. Eight dose points with 3 folds dilution of each compound were adopted and the highest concentration of the compounds was 10 μM and 100 μM for HBV inhibitory activity and cytotoxicity determination, respectively.
The HBV DAN change in the cell culture medium induced by the compounds was measured by q-PCR (quantitative polymerase chain reaction) method. The HBV DNA in the culture medium was extracted using QIAamp 96 DNA Blood Kit according to the manual and then quantified by q-PCR using the primers and probe in the table below: […]
(§3) EC50 and CC50 values are calculated by the GraphPad Prism software and are averages where multiple measurements were made. EC50 values for the other exemplified compounds were either not measured or higher than 1 μM.

[1] = Cytotoxicity determination in HepG2.2.15 cells (CCK-8); assay type: cell-based; conditions: human, 6 days of compound treatment, CCK-8, highest concentration 100 μM
Method: as §1, §2
After 6 days of compounds treatment, 20 μl CCK-8 (Cell Counting Kit-8 (Tianjin Biolite company)) reagents were added to each well of cytotoxicity assay plates, the plate was incubated at 37° C., 5% CO2 for 2.5 hours and the absorbance at 450 nm wavelength was measured, at the same time the absorbance at 630 nm wavelength was read as reference.
as §3

[2] = Hepatitis B virus, HepG2.2.15, 144 h, HepG2.2.15 cells, 6 days of compound treatment, HBV DNA in culture medium by q-PCR, highest concentration 10 μM, read-out: EC50

Work on `COC(=O)C1=C(C2CCN(S(=O)(=O)C3CC(C)(C(=O)O)C3)CC2)NC(c2nccs2)=NC1c1ccc(F)cc1Cl` (stereo not drawn) [Compound 141, (trans)-3-((4-(6-(2-chloro-4-fluorophenyl)-5-(methoxycarbonyl)-2-(thiazol-2-yl)-3,6-dihydropyrimidin-4-yl)piperidin-1-yl)sulfonyl)-1-methylcyclobutane-1-carboxylic Acid] yielded an EC50 (HBV; [2]) of 51 nM and a CC50 at 6 days [1] of 30700 nM.
For `CCOC(=O)C1=C(C2CCN(S(=O)(=O)[C@H]3C[C@H](C(=O)O)C3)CC2)NC(c2nccs2)=NC1c1ccc(F)c(F)c1C` (single isomer, unassigned) [Compound 343A, (trans)-3-((4-(6-(3,4-difluoro-2-methylphenyl)-5-(ethoxycarbonyl)-2-(thiazol-2-yl)-3,6-dihydropyrimidin-4-yl)piperidin-1-yl)sulfonyl)cyclobutanecarboxylic Acid], the EC50 (HBV; HepG2.2.15 cells, 6 days of compound treatment, HBV DNA in culture medium by q-PCR, highest concentration 10 μM, read-out: EC50) was 89 nM and the CC50 at 6 days [1] was 40800 nM.
`COC(=O)C1=C([C@H]2CC[C@H](S(=O)(=O)N3CCCC3)CC2)NC(c2nccs2)=NC1c1ccc(F)c(F)c1Cl` (single isomer, unassigned) [Compound 169A, (trans)-Methyl 4-(2-chloro-3,4-difluorophenyl)-6-(4-(pyrrolidin-1-ylsulfonyl)cyclohexyl)-2-(thiazol-2-yl)-1,4-dihydropyrimidine-5-carboxylate] showed an EC50 (HBV; [2]) of 56 nM and a CC50 at 6 days [1] of over 100000 nM.
Compound `COC(=O)C1=C(C2CCN(S(C)(=O)=O)CC2)NC(c2c(F)cc(F)cc2F)=NC1c1ccc(F)cc1Cl` (single isomer, unassigned) [Compound 54A, Methyl 4-(2-chloro-4-fluorophenyl)-6-(1-(methylsulfonyl)piperidin-4-yl)-2-(2,4,6-trifluorophenyl)-1,4-dihydropyrimidine-5-carboxylate] has an EC50 (HBV; [2]) of 19 nM and a CC50 at 6 days [1] of 31200 nM.
Compound `COC(=O)C1=C(C2C[C@@H]3CN(S(C)(=O)=O)C[C@@H]3C2)NC(c2nccs2)=NC1c1ccc(F)cc1Cl` (single isomer, unassigned) [Compound 176A, Methyl 4-(2-chloro-4-fluorophenyl)-6-((cis)-2-(methylsulfonyl)-octahydrocyclopenta[c]pyrrol-5-yl)-2-(thiazol-2-yl)-1,4-dihydropyrimidine-5-carboxylate] has an EC50 (HBV; [2]) of 69 nM and a CC50 at 6 days [1] of 19900 nM.
With `COC(=O)C1=C([C@H]2CC[C@H](NS(C)(=O)=O)CC2)NC(c2nccs2)=NC1c1ccc(F)cc1Cl` (single isomer, unassigned) [Compound 126B, Methyl 4-(2-chloro-4-fluorophenyl)-6-(trans-4-(methyl-sulfonamido)cyclohexyl)-2-(thiazol-2-yl)-1,4-dihydropyrimidine-5-carboxylate] the EC50 (HBV; [2]) was 343 nM and the CC50 at 6 days [1] was 31800 nM.
In the case of `COC(=O)C1=C([C@H]2CC[C@H](S(=O)(=O)NCC(C)(C)C(=O)OC(C)(C)C)CC2)NC(c2nccs2)=NC1c1ccc(F)c(F)c1Cl` (single isomer, unassigned) [Compound 361X, (trans)-methyl 6-(4-(N-(3-(tert-butoxy)-2,2-dimethyl-3-oxopropyl)sulfamoyl)cyclohexyl)-4-(2-chloro-3,4-difluorophenyl)-2-(thiazol-2-yl)-1,4-dihydropyrimidine-5-carboxylate], the EC50 (HBV; [2]) is reported as 87 nM and the CC50 at 6 days [1] is reported as over 100000 nM.
Compound `COC(=O)C1=C(C2CN(S(=O)(=O)C3CCCCC3)C2)NC(c2nccs2)=NC1c1ccc(F)cc1Cl` (stereo not shown) [Compound 82, Methyl 4-(2-chloro-4-fluorophenyl)-6-(1-(cyclohexylsulfonyl)-azetidin-3-yl)-2-(thiazol-2-yl)-1,4-dihydropyrimidine-5-carboxylate] has an EC50 (HBV; [2]) of 197 nM and a CC50 at 6 days [1] of 6900 nM.
With `COC(=O)C1=C(C2CCN(S(=O)(=O)CCOCCOCCO)CC2)NC(c2nccs2)=NC1c1ccc(F)cc1Cl` (stereo not shown) [Compound 468, Methyl 4-(2-chloro-4-fluorophenyl)-6-(1-((2-(2-(2-hydroxyethoxy)ethoxy)ethyl)sulfonyl)piperidin-4-yl)-2-(thiazol-2-yl)-1,4-dihydropyrimidine-5-carboxylate] the EC50 (HBV; Hepatitis B virus, HepG2.2.15, 144 h) was 9 nM and the CC50 at 6 days [1] was 42900 nM.
In the case of `COC(=O)C1=C(C2CCN(C(=O)CO)CC2)NC(c2nccs2)=NC1c1ccc(F)cc1Cl` (single isomer, unassigned) [Compound 122B, Methyl 4-(2-chloro-4-fluorophenyl)-6-(1-(2-hydroxyacetyl)-piperidin-4-yl)-2-(thiazol-2-yl)-1,4-dihydropyrimidine-5-carboxylate], the EC50 (HBV; [2]) is reported as 57 nM and the CC50 at 6 days [1] is reported as 31600 nM.
In the case of `COC(=O)C1=C(C2CCN(S(=O)(=O)[C@@H]3CC[C@H](C(=O)O)C3)CC2)NC(c2nccs2)=NC1c1ccc(F)cc1Cl` (relative stereo) [Compound 311B, (cis)-3-((4-(6-(2-Chloro-4-fluorophenyl)-5-(methoxycarbonyl)-2-(thiazol-2-yl)-3,6-dihydropyrimidin-4-yl)piperidin-1-yl)sulfonyl)-cyclopentanecarboxylic Acid], the EC50 (HBV; [2]) is reported as 97 nM and the CC50 at 6 days [1] is reported as over 100000 nM.
`COCCNS(=O)(=O)[C@H]1CC[C@H](C2=C(C(=O)OC)C(c3ccc(F)c(F)c3Cl)N=C(c3nccs3)N2)CC1` (single isomer, unassigned) [Compound 359D, (trans)-methyl 4-(2-chloro-3,4-difluorophenyl)-6-(4-(N-(2-methoxyethyl)sulfamoyl)cyclohexyl)-2-(thiazol-2-yl)-1,4-dihydropyrimidine-5-carboxylate] showed an EC50 (HBV; [2]) of 5 nM and a CC50 at 6 days [1] of 12000 nM.
In the case of `CCOC(=O)C1=C(C2CCN(S(C)(=O)=O)CC2)NC(c2ncc(F)cc2F)=NC1c1ccc(F)cc1Cl` (single isomer, unassigned) [Compound 56A, Ethyl 4-(2-chloro-4-fluorophenyl)-2-(3,5-difluoropyridin-2-yl)-6-(1-(methylsulfonyl)piperidin-4-yl)-1,4-dihydropyrimidine-5-carboxylate], the EC50 (HBV; [2]) is reported as 513 nM and the CC50 at 6 days [1] is reported as over 10000 nM.
With `CCOC(=O)C1=C([C@H]2CC[C@H](C(=O)O)CC2)NC(c2nccs2)=NC1c1ccc(F)c(F)c1Br` (stereo partly drawn) [Compound 347B, (trans)-4-(6-(2-bromo-3,4-difluorophenyl)-5-(ethoxycarbonyl)-2-(thiazol-2-yl)-3,6-dihydropyrimidin-4-yl)cyclohexanecarboxylic Acid] the EC50 (HBV; [2]) was 110 nM and the CC50 at 6 days [1] was 31400 nM.
For `CCOC(=O)C1=C([C@H]2CC[C@H](C(N)=O)CC2)NC(c2nccs2)=NC1c1ccc(F)cc1Cl` (stereo partly drawn) [Compound 163, (trans)-ethyl 6-(−4-carbamoylcyclohexyl)-4-(2-chloro-4-fluorophenyl)-2-(thiazol-2-yl)-1,4-dihydropyrimidine-5-carboxylate], the EC50 (HBV; [2]) was 65 nM and the CC50 at 6 days [1] was 23900 nM.
`CCOC(=O)C1=C([C@@H]2CCN(S(C)(=O)=O)[C@@H](CF)C2)NC(c2nccs2)=NC1c1ccc(F)cc1Cl` (relative stereo) [Compound 404N, ethyl 4-(2-chloro-4-fluorophenyl)-6-((trans)-2-(fluoromethyl)-1-(methylsulfonyl)piperidin-4-yl)-2-(thiazol-2-yl)-1,4-dihydropyrimidine-5-carboxylate] showed an EC50 (HBV; [2]) of 155 nM and a CC50 at 6 days [1] of 17700 nM.
With `COC(=O)C1=C(C2CCN(S(=O)(=O)C[C@H]3CC[C@H](C(=O)O)CC3)CC2)NC(c2nccs2)=NC1c1cccc(F)c1C` (stereo partly drawn) [Compound 444b, (trans)-4-(((4-(6-(3-Fluoro-2-methylphenyl)-5-(methoxycarbonyl)-2-(thiazol-2-yl)-3,6-dihydropyrimidin-4-yl)piperidin-1-yl)sulfonyl)methyl)cyclohexanecarboxylic Acid] the EC50 (HBV; [2]) was 59 nM and the CC50 at 6 days [1] was 8300 nM.
For `CCOC(=O)C1=C(C2CCN(S(=O)(=O)[C@H]3C[C@H](C(=O)O)C3)CC2)NC(c2nccs2)=NC1c1ccc(F)cc1Cl` (stereo partly drawn) [Compound 329B, (trans)-3-((4-(6-(2-Chloro-4-fluorophenyl)-5-(ethoxycarbonyl)-2-(thiazol-2-yl)-3,6-dihydropyrimidin-4-yl)piperidin-1-yl)sulfonyl)cyclobutane-carboxylic Acid], the EC50 (HBV; [2]) was 69 nM and the CC50 at 6 days [1] was 60000 nM.
With `COC(=O)C1=C(C2CCN(S(C)(=O)=O)CC2)NC(c2nccs2)=NC1c1ccc(F)cc1Cl` (stereo not shown) [Compound 103, Methyl 4-(2-chloro-4-fluorophenyl)-6-(1-(methylsulfonyl)-piperidin-4-yl)-2-(thiazol-2-yl)-1,4-dihydropyrimidine-5-carboxylate] the EC50 (HBV; [2]) was 501 nM and the CC50 at 6 days [1] was 87000 nM.
`COC(=O)C1=C(C2CCN(S(=O)(=O)[C@H]3C[C@H](C(C)(C)O)C3)CC2)NC(c2nccs2)=NC1c1ccc(F)cc1Cl` (single isomer, unassigned) [Compound 244B, (trans)-Methyl 4-(2-chloro-4-fluorophenyl)-6-(1-((3-(2-hydroxypropan-2-yl)cyclobutyl)sulfonyl)piperidin-4-yl)-2-(thiazol-2-yl)-1,4-dihydropyrimidine-5-carboxylate] showed an EC50 (HBV; [2]) of 6 nM and a CC50 at 6 days [1] of 12300 nM.
